Like-named read-outs stand apart in the source and are kept apart here.
Experiments:
[1] = pH stability; assay type: physicochemical; conditions: 4% (w/v), 100° C., 24 hours; for Purity: HPLC
Method: Eight milliliters of each solution was placed in a glass test tube, followed by sealing the test tube and heating the solution at 100° C. for 24 hours. After cooling under atmospheric conditions, each solution was measured for coloration degree and determined for purity on HPLC. The coloration degree was evaluated based on the absorbance in a cell with a 1-cm light pass at a wavelength of 480 nm.

[2] = Reducing power on the Somogyi-Nelson's method; assay type: physicochemical
[3] = target: T1, salivary amylase (Homo sapiens, UniProt P0DUB6)
T1 sequence (P0DUB6 16-511): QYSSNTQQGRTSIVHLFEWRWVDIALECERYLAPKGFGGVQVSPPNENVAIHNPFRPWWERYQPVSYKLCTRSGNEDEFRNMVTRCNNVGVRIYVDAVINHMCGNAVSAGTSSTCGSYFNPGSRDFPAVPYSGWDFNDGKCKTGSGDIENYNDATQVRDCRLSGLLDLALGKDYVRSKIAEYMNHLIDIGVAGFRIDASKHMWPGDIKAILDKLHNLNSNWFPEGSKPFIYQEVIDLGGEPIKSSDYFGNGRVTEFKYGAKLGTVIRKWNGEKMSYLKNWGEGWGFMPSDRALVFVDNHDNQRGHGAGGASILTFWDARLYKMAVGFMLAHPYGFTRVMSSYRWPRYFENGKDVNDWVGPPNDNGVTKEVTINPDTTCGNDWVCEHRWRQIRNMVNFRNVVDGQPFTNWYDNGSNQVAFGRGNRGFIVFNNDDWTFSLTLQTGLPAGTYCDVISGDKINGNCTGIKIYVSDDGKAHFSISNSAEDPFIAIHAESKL

[4] = tested on: Lactobacillus acidophilus JCM 1132 strain; experiment: Assimilation test; assay type: cell-based; conditions: PYF medium with 0.5% saccharide, 37° C., four days, anaerobic
[5] = tested on: Bifidobacterium adolescentis JCM 1275 strain; experiment: Assimilation test; assay type: cell-based; conditions: PYF medium with 0.5% saccharide, 37° C., four days, anaerobic
[6] = Inclusion action; assay type: physicochemical
Method: To 100 g of the aqueous solution was added 2 g of methanol, 3 g of ethanol, or 4.6 g of acetic acid to be included by the cyclotetrasaccharide. Thereafter, each of the resulting solutions was filtered to remove non-inclusion products, and the filtrate was lyophilized. As a control, similar inclusion products were prepared by using “ISOELITE™ P”, a branched cyclodextrin commercialized by Maruha K.K., Tokyo, Japan, known to have inclusion ability.
To measure the amount of the inclusion products in the resulting lyophilized powders, one gram of each powder was dissolved in five milliliters water and extracted after admixing with five milliliters of diethylether. The extraction was repeated, and the resulting extracts were pooled and quantified on gas chromatography.

[7] = Amino carbonyl reaction with glycine; assay type: physicochemical; conditions: 10% (w/v) with 1% (w/v) glycine, pH 7.0, 100° C.
Method: Four milliliter aliquots of the resulting solution were placed in glass test tubes, sealed, and heated at 100° C. for 30 to 90 min. After allowing to stand for cooling at ambient temperature, each of the resulting solutions was measured for coloration degree to examine their amino carbonyl reactivity. The coloration degree was evaluated based on the absorbance in a cell with 1-cm light pass at a wavelength of 480 nm.

[8] = tested on: Eubacterium aerofaciens ATCC 25986 strain; experiment: Assimilation test; assay type: cell-based; conditions: PYF medium with 0.5% saccharide, 37° C., four days, anaerobic
[9] = tested on: internal content of rat cecum; experiment: Fermentation test; assay type: in vitro ADME
Method: The internal content of rat cecum was collected by anesthetizing a Wister male rat with ether, allowing the rat to die, collecting the internal content under anaerobic conditions, and suspending the resultant with 4-fold volumes of a 0.1 M aqueous solution of sodium bicarbonate. Cyclotetrasaccharide was added in an amount of about 7% by weight to the weight of the internal contents of rat cecum, and the contents of cyclotetrasaccharide, which still remained just after and 12 hours after the addition of the internal contents, were quantified on gas chromatography.

[10] = Digestion test in vitro; conditions: Synthetic gastric juice
[11] = tested on: small intestinal mucosal enzyme; experiment: Digestion test in vitro
[12] = target: T1, salivary amylase; experiment: Digestion test in vitro
[13] = target: T2, amylopsin (Homo sapiens, UniProt P04746); experiment: Digestion test in vitro
T2 sequence (P04746 16-511): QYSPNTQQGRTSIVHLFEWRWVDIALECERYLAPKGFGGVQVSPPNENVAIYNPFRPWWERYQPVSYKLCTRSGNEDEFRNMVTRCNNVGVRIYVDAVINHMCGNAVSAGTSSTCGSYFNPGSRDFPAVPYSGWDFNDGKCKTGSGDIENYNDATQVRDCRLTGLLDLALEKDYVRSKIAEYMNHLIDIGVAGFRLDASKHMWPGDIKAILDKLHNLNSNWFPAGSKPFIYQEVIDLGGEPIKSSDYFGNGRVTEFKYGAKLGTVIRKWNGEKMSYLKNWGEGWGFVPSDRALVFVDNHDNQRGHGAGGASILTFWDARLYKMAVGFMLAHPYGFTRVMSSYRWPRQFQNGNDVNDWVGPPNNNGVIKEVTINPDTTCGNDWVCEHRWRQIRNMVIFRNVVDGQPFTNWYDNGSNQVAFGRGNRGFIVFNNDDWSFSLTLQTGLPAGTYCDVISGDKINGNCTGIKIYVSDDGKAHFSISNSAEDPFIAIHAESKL

**Q.** With OCC1OC2OCC3O[C@H](O[C@H]4C(O)C(CO)OC(OCC5O[C@H](O[C@@H](C1O)C2O)C(O)C(O)[C@@H]5O)C4O)C(O)C(O)[C@@H]3O (stereo partly drawn) [Cyclotetrasaccharide, cyclo{→6)-α-D-glucopyranosyl-(1→3)-α-D-glucopyranosyl-(1→6)-α-D-glucopyranosyl-(1→3)-α-D-glucopyranosyl-(1→}] as the compound, how does the “Coloration degree (A480 nm)” value ([1]; pH 2.0 (Acetate buffer)) read?
**A.** 0.00

**Q.** What about the Purity ([1]; pH 2.0 (Acetate buffer)) of the same compound?
**A.** 93%

**Q.** And the “Coloration degree (A480 nm)” value ([1]; pH 3.0 (Acetate buffer))?
**A.** 0.00

**Q.** What about the Purity ([1]; pH 3.0 (Acetate buffer)) of the same compound?
**A.** 100%

**Q.** And the “Coloration degree (A480 nm)” value ([1]; pH 4.0 (Acetate buffer))?
**A.** 0.00

**Q.** What about the Purity ([1]; pH 4.0 (Acetate buffer)) of the same compound?
**A.** 100%

**Q.** What about the “Coloration degree (A480 nm)” value ([1]; pH 5.0 (Acetate buffer)) of the same compound?
**A.** 0.00

**Q.** And the Purity ([1]; pH 5.0 (Acetate buffer))?
**A.** 100%

**Q.** And the “Coloration degree (A480 nm)” value ([1]; pH 6.0 (Tris-HCl buffer))?
**A.** 0.00

**Q.** And the Purity ([1]; pH 6.0 (Tris-HCl buffer))?
**A.** 100%

**Q.** And the “Coloration degree (A480 nm)” value ([1]; pH 7.0 (Tris-HCl buffer))?
**A.** 0.00

**Q.** What about the Purity ([1]; pH 7.0 (Tris-HCl buffer)) of the same compound?
**A.** 100%

**Q.** And the “Coloration degree (A480 nm)” value ([1]; pH 8.0 (Tris-HCl buffer))?
**A.** 0.00

**Q.** And the Purity ([1]; pH 8.0 (Tris-HCl buffer))?
**A.** 100%

**Q.** And the “Coloration degree (A480 nm)” value ([1]; pH 9.0 (Ammonium buffer))?
**A.** 0.00

**Q.** What about the Purity ([1]; pH 9.0 (Ammonium buffer)) of the same compound?
**A.** 100%

**Q.** What about the “Coloration degree (A480 nm)” value ([1]; pH 10.0 (Ammonium buffer)) of the same compound?
**A.** 0.00

**Q.** What about the Purity ([1]; pH 10.0 (Ammonium buffer)) of the same compound?
**A.** 100%

**Q.** And the Reducing power [2]?
**A.** below a detectable level

**Q.** What about the “Decomposition percentage by digestive enzyme” value (“Decomposition percentage” below) [3] of the same compound?
**A.** 0.0%

**Q.** What about the Assimilability [4] of the same compound?
**A.** − (negative (−) when the post culture had a pH of 6.0 or higher)

**Q.** And the Assimilability [5]?
**A.** − (negative (−) when the post culture had a pH of 6.0 or higher)

**Q.** What about the “Inclusion ability relative to the branched cyclodextrin, by weight” value ([6]; higher than ISOELITE P) of the same compound?
**A.** about 2 folds

**Q.** What about the Inclusion amount ([6]; inclusion product Acetic acid) of the same compound?
**A.** 67.74 mg/g lyophilized powder

**Q.** And the Inclusion amount ([6]; inclusion product Ethanol)?
**A.** 17.26 mg/g lyophilized powder

**Q.** And the Inclusion amount ([6]; inclusion product Methanol)?
**A.** 6.71 mg/g lyophilized powder

**Q.** What about the “Coloration degree (A480 nm)” value ([7]; heating time 0 min) of the same compound?
**A.** 0.00

**Q.** And the “Coloration degree (A480 nm)” value ([7]; heating time 30 min)?
**A.** 0.00

**Q.** What about the “Coloration degree (A480 nm)” value ([7]; heating time 60 min) of the same compound?
**A.** 0.00

**Q.** And the “Coloration degree (A480 nm)” value ([7]; heating time 90 min)?
**A.** 0.00

**Q.** And the Assimilability [8]?
**A.** − (negative (−) when the post culture had a pH of 6.0 or higher)

**Q.** What about the “Cyclotetrasaccharide remained without being fermented” value ([9]; 12 hours) of the same compound?
**A.** 93%

**Q.** What about the “Content of cyclotetrasaccharide remaining” value ([9]; 12 hours after the addition) of the same compound?
**A.** 63.0 mg per one gram of the internal contents of rat cecum

**Q.** And the “Content of cyclotetrasaccharide remaining” value ([9]; just after the addition)?
**A.** 68.0 mg per one gram of the internal contents of rat cecum

**Q.** For OC[C@@H](O)[C@@H](O[C@H]1O[C@H](CO)[C@@H](O)[C@H](O)[C@H]1O)[C@H](O)[C@@H](O)CO [Maltitol, maltitol], which “Decomposition percentage” value [10] is on record?
**A.** 0.0%

**Q.** And the “Decomposition percentage” value [11]?
**A.** 4.0%

**Q.** And the “Decomposition percentage” value [12]?
**A.** 0.0%

**Q.** What about the “Decomposition percentage” value [13] of the same compound?
**A.** 0.0%

— patent US7192746B2, “α-Isomaltosyltransferase, process for producing the same and use thereof” (Kabushiki Kaisha Hayashibara Seibutsu Kagaku Kenkyujo, priority 2000, dated 2007)
